The CheMixHub viscosity set

Experiment: xn = mol fraction of the nth substance listed

ClC(Cl)Cl + c1ccccc1
Details | viscosity [mPa·s]
293.15 K, 101 kPa, x1 = 0.101 | 0.627
293.15 K, 101 kPa, x1 = 0.245 | 0.606
293.15 K, 101 kPa, x1 = 0.433 | 0.593
293.15 K, 101 kPa, x1 = 0.653 | 0.582
298 K, 101 kPa, x2 = 0.1452 | 0.5431
298 K, 101 kPa, x2 = 0.2124 | 0.5457
298 K, 101 kPa, x2 = 0.2765 | 0.5478
298 K, 101 kPa, x2 = 0.3958 | 0.5532
298 K, 101 kPa, x2 = 0.5047 | 0.559
298 K, 101 kPa, x2 = 0.5556 | 0.562
298 K, 101 kPa, x2 = 0.6045 | 0.566
298 K, 101 kPa, x2 = 0.6513 | 0.5702
298 K, 101 kPa, x2 = 0.6963 | 0.5751
298 K, 101 kPa, x2 = 0.781 | 0.5844
298 K, 101 kPa, x2 = 0.8594 | 0.5943
298 K, 101 kPa, x2 = 0.8965 | 0.6002
298 K, 101 kPa, x2 = 0.9322 | 0.6044
298.15 K, 101 kPa, x1 = 0.0974 | 0.587
298.15 K, 101 kPa, x1 = 0.1964 | 0.581
298.15 K, 101 kPa, x1 = 0.2012 | 0.5935
298.15 K, 101 kPa, x1 = 0.3014 | 0.5886
298.15 K, 101 kPa, x1 = 0.3582 | 0.5866
298.15 K, 101 kPa, x1 = 0.4568 | 0.5805
298.15 K, 101 kPa, x1 = 0.4857 | 0.5773
298.15 K, 101 kPa, x1 = 0.6022 | 0.57
298.15 K, 101 kPa, x1 = 0.6861 | 0.557
298.15 K, 101 kPa, x1 = 0.7542 | 0.5603
298.15 K, 101 kPa, x1 = 0.8971 | 0.546
298.15 K, 101 kPa, x2 = 0.1029 | 0.546
298.15 K, 101 kPa, x2 = 0.1297 | 0.5454
298.15 K, 101 kPa, x2 = 0.2 | 0.525
298.15 K, 101 kPa, x2 = 0.2983 | 0.5512
298.15 K, 101 kPa, x2 = 0.3141 | 0.557
298.15 K, 101 kPa, x2 = 0.3724 | 0.5535
298.15 K, 101 kPa, x2 = 0.4 | 0.541
298.15 K, 101 kPa, x2 = 0.4086 | 0.5544
298.15 K, 101 kPa, x2 = 0.49 | 0.558
298.15 K, 101 kPa, x2 = 0.5395 | 0.5613
298.15 K, 101 kPa, x2 = 0.6 | 0.555
298.15 K, 101 kPa, x2 = 0.6023 | 0.5633
298.15 K, 101 kPa, x2 = 0.6707 | 0.5656
298.15 K, 101 kPa, x2 = 0.6862 | 0.5668
298.15 K, 101 kPa, x2 = 0.7414 | 0.5709
298.15 K, 101 kPa, x2 = 0.8 | 0.574
298.15 K, 101 kPa, x2 = 0.8037 | 0.581
298.15 K, 101 kPa, x2 = 0.8801 | 0.5866
298.15 K, 101 kPa, x2 = 0.9029 | 0.587
298.15 K, 101 kPa, x2 = 0.9214 | 0.589
298.15 K, 101 kPa, x2 = 0.962 | 0.5949
298.15 K, 101.33 kPa, x1 = 0.0672 | 0.5938
298.15 K, 101.33 kPa, x1 = 0.1508 | 0.5847
298.15 K, 101.33 kPa, x1 = 0.2151 | 0.5795
298.15 K, 101.33 kPa, x1 = 0.3057 | 0.5722
298.15 K, 101.33 kPa, x1 = 0.5108 | 0.5613
298.15 K, 101.33 kPa, x1 = 0.6489 | 0.559
298.15 K, 101.33 kPa, x1 = 0.8164 | 0.5493
298.15 K, 101.33 kPa, x1 = 0.9301 | 0.5403
303.15 K, 101 kPa, x1 = 0.101 | 0.548
303.15 K, 101 kPa, x1 = 0.245 | 0.533
303.15 K, 101 kPa, x1 = 0.433 | 0.527
303.15 K, 101 kPa, x1 = 0.653 | 0.52
308 K, 101 kPa, x2 = 0.1452 | 0.4917
308 K, 101 kPa, x2 = 0.2124 | 0.4939
308 K, 101 kPa, x2 = 0.2765 | 0.4958
308 K, 101 kPa, x2 = 0.3958 | 0.5001
308 K, 101 kPa, x2 = 0.5047 | 0.5049
308 K, 101 kPa, x2 = 0.5556 | 0.5077
308 K, 101 kPa, x2 = 0.6045 | 0.5108
308 K, 101 kPa, x2 = 0.6513 | 0.5136
308 K, 101 kPa, x2 = 0.6963 | 0.5168
308 K, 101 kPa, x2 = 0.781 | 0.5225
308 K, 101 kPa, x2 = 0.8594 | 0.5282
308 K, 101 kPa, x2 = 0.8965 | 0.5311
308 K, 101 kPa, x2 = 0.9322 | 0.5336
313.15 K, 101 kPa, x1 = 0.101 | 0.483
313.15 K, 101 kPa, x1 = 0.245 | 0.473
313.15 K, 101 kPa, x1 = 0.433 | 0.47
313.15 K, 101 kPa, x1 = 0.653 | 0.471
318 K, 101 kPa, x2 = 0.1452 | 0.451
318 K, 101 kPa, x2 = 0.2124 | 0.452
318 K, 101 kPa, x2 = 0.2765 | 0.4532
318 K, 101 kPa, x2 = 0.3958 | 0.4558
318 K, 101 kPa, x2 = 0.5047 | 0.4587
318 K, 101 kPa, x2 = 0.5556 | 0.4602
318 K, 101 kPa, x2 = 0.6045 | 0.4618
318 K, 101 kPa, x2 = 0.6513 | 0.4635
318 K, 101 kPa, x2 = 0.6963 | 0.4652
318 K, 101 kPa, x2 = 0.781 | 0.4685
318 K, 101 kPa, x2 = 0.8594 | 0.472
318 K, 101 kPa, x2 = 0.8965 | 0.4738
318 K, 101 kPa, x2 = 0.9322 | 0.4755
323.15 K, 101 kPa, x1 = 0.101 | 0.431
323.15 K, 101 kPa, x1 = 0.245 | 0.426
323.15 K, 101 kPa, x1 = 0.433 | 0.43
